Data from the supplement of paper PMC10307832.

Tests used:
Assay in all cases: relative viability (nuclei count vs DMSO), 5 days (fraction); higher = more cells survive
[1] = compound: COc1cc(Nc2ncc3c(n2)-c2ccc(Cl)cc2C(c2c(F)cccc2OC)=NC3)ccc1C(=O)O [Alisertib] + Nc1ncn([C@H]2C[C@H](O)[C@@H](CO)O2)c(=O)n1 [Decitabine] (partner 2 µM)
Outline: (§1)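 Lung cancer cell lines in 1536-well plates were dosed by pin tool the day after seeding, either with one drug alone or with a fixed anchor-drug dose plus five library-drug doses (not always all listed) in √10 steps. After 5 days, cells were fixed and their nuclei stained in one step (final 0.05% Triton X-100, 1% formaldehyde, 1 ug/ml Hoechst), then counted on 4× images. Relative viability is the nuclei count in treated wells divided by that in vehicle wells. Values are medians of duplicate plates.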

[2] = compound: COc1cc(Nc2ncc3c(n2)-c2ccc(Cl)cc2C(c2c(F)cccc2OC)=NC3)ccc1C(=O)O [Alisertib] + O=C(c1cc(Cc2n[nH]c(=O)c3ccccc23)ccc1F)N1CCN(C(=O)C2CC2)CC1 [Olaparib] (partner 8 µM)
Outline: as §1

[3] = compound: COc1cc(Nc2ncc3c(n2)-c2ccc(Cl)cc2C(c2c(F)cccc2OC)=NC3)ccc1C(=O)O [Alisertib] + CCNC(=O)c1noc(-c2cc(C(C)C)c(O)cc2O)c1-c1ccc(CN2CCOCC2)cc1 [Luminespib] (partner 0.01 µM)
Outline: as §1

[4] = compound: COc1cc(Nc2ncc3c(n2)-c2ccc(Cl)cc2C(c2c(F)cccc2OC)=NC3)ccc1C(=O)O [Alisertib] + CS(=O)(=O)CCNCc1ccc(-c2ccc3ncnc(Nc4ccc(OCc5cccc(F)c5)c(Cl)c4)c3c2)o1 [Lapatinib] (partner 2 µM)
Outline: as §1

Cell Line	relative viability ([1]; first compound 0.005 µM)	relative viability ([1]; first compound 0.01581 µM)	relative viability ([1]; first compound 0.05 µM)	relative viability ([1]; first compound 0.1581 µM)	relative viability ([1]; first compound 0.5 µM)	relative viability ([2]; first compound 0.005 µM)	relative viability ([2]; first compound 0.01581 µM)	relative viability ([2]; first compound 0.05 µM)	relative viability ([2]; first compound 0.1581 µM)	relative viability ([2]; first compound 0.5 µM)	relative viability ([3]; first compound 0.005 µM)	relative viability ([3]; first compound 0.01581 µM)	relative viability ([3]; first compound 0.05 µM)	relative viability ([3]; first compound 0.1581 µM)	relative viability ([3]; first compound 0.5 µM)	relative viability ([4]; first compound 0.005 µM)	relative viability ([4]; first compound 0.01581 µM)	relative viability ([4]; first compound 0.05 µM)	relative viability ([4]; first compound 0.1581 µM)	relative viability ([4]; first compound 0.5 µM)
NCI-H441	0.227	0.197	0.137	0.152	0.153	0.487	0.471	0.139	0.173	0.172	0.369	0.364	0.223	0.218	0.242	–	–	–	–	–
NCI-H1793	0.359	0.309	0.196	0.24	0.206	0.798	0.354	0.296	0.273	0.132	0.171	0.147	0.156	0.127	0.136	0.887	0.376	0.41	0.22	0.27
NCI-H23	0.3	0.184	0.184	0.2	0.178	0.287	0.167	0.146	0.141	0.155	0.219	0.236	0.204	0.224	0.214	1.01	0.427	0.27	0.176	0.171
HARA	0.524	0.58	0.334	0.208	0.145	0.763	0.703	0.17	0.328	0.146	0.682	0.428	0.209	0.0919	0.0942	0.616	0.631	0.848	0.129	0.0993
NCI-H1792	0.575	0.496	0.213	0.132	0.0838	0.425	0.384	0.138	0.0583	0.0651	0.481	0.533	0.225	0.195	0.17	0.847	0.875	0.61	0.215	0.0684
NCI-H1703	–	–	–	–	–	0.534	0.387	0.198	0.153	0.141	–	–	–	–	–	1.11	0.721	0.217	0.262	0.137
NCI-H2342	0.673	0.639	0.452	0.441	0.431	0.463	0.475	0.298	0.33	0.349	0.646	0.662	0.555	0.447	0.368	–	–	–	–	–
CAL-12T	–	–	–	–	–	0.66	0.534	0.194	0.159	0.195	0.412	0.205	0.1	0.169	0.188	0.556	0.526	0.195	0.198	0.169
NCI-H838	0.402	0.334	0.253	0.213	0.198	0.673	0.552	0.324	0.169	0.152	0.386	0.343	0.252	0.135	0.133	0.827	0.673	0.391	0.257	0.164
NCI-H2085	0.565	0.544	0.319	0.396	0.332	0.74	0.723	0.4	0.335	0.35	0.419	0.341	0.309	0.342	0.329	0.752	0.692	0.422	0.306	0.323
NCI-H1395	0.649	0.618	0.505	0.471	0.393	0.438	0.424	0.442	0.37	0.361	0.78	0.561	0.566	0.342	0.343	0.865	0.843	0.795	0.596	0.391
NCI-H1648	–	0.478	0.405	0.279	0.247	–	0.711	0.293	0.242	0.267	–	–	–	–	–	–	–	–	–	–
NCI-H460	0.441	0.408	0.0826	0.0385	0.0482	0.371	0.387	0.0754	0.0677	0.0562	0.0403	0.0274	0.0247	0.0194	0.0287	0.977	0.8	0.29	0.0226	0.0161
A549	0.247	0.207	0.125	0.0435	0.0399	0.317	0.305	0.0782	0.079	0.0413	–	–	–	–	–	0.812	0.235	0.148	0.0742	0.0628
IA-LM	–	–	–	–	–	0.671	0.674	0.596	0.449	0.0913	–	–	–	–	–	0.853	0.91	0.309	0.212	0.184
EKVX	0.303	0.302	0.206	0.174	0.158	0.848	0.674	0.282	0.207	0.203	0.711	0.74	0.356	0.168	0.169	0.211	0.238	0.16	0.126	0.111
ChaGo-K-1	0.518	0.423	0.222	0.197	0.19	0.355	0.339	0.174	0.17	0.154	0.565	0.451	0.258	0.169	0.217	–	–	–	–	–
NCI-H1755	0.643	0.673	0.543	0.413	0.348	0.814	0.792	0.532	0.509	0.287	0.463	0.409	0.255	0.189	0.199	0.946	0.945	0.833	0.299	0.316
NCI-H2228	–	–	–	–	–	0.652	0.767	0.205	0.0922	0.0747	0.111	0.117	0.112	0.144	0.186	0.731	0.562	0.182	0.115	0.209

Cell Line	relative viability ([1]; first compound 0.005 µM)	relative viability ([1]; first compound 0.01581 µM)	relative viability ([1]; first compound 0.05 µM)	relative viability ([1]; first compound 0.1581 µM)	relative viability ([1]; first compound 0.5 µM)	relative viability ([2]; first compound 0.005 µM)	relative viability ([2]; first compound 0.01581 µM)	relative viability ([2]; first compound 0.05 µM)	relative viability ([2]; first compound 0.1581 µM)	relative viability ([2]; first compound 0.5 µM)	relative viability ([3]; first compound 0.005 µM)	relative viability ([3]; first compound 0.01581 µM)	relative viability ([3]; first compound 0.05 µM)	relative viability ([3]; first compound 0.1581 µM)	relative viability ([3]; first compound 0.5 µM)	relative viability ([4]; first compound 0.005 µM)	relative viability ([4]; first compound 0.01581 µM)	relative viability ([4]; first compound 0.05 µM)	relative viability ([4]; first compound 0.1581 µM)	relative viability ([4]; first compound 0.5 µM)
NCI-H2087	0.246	0.268	0.149	0.126	0.0842	0.549	0.527	0.13	0.126	0.108	0.191	0.136	0.155	0.16	0.115	1.16	0.724	0.245	0.188	0.183
LU99A	0.856	0.85	0.311	0.27	0.186	0.253	0.223	0.189	0.151	0.133	0.245	0.3	0.219	0.201	0.177	0.855	0.852	0.651	0.214	0.186
NCI-H1355	0.347	0.358	0.229	0.177	0.154	0.575	0.476	0.191	0.152	0.159	0.67	0.37	0.221	0.183	0.217	0.914	0.837	0.671	0.258	0.184
NCI-H520	0.435	0.451	0.355	0.236	0.242	0.317	0.244	0.217	0.18	0.249	0.237	0.202	0.197	0.209	0.193	0.76	0.449	0.276	0.258	0.242
NCI-H727	0.843	0.892	0.81	0.617	0.537	0.679	0.624	0.556	0.518	0.465	0.366	0.325	0.557	0.24	0.169	0.75	0.68	0.497	0.384	0.314
NCI-H661	0.459	0.501	0.37	0.312	0.293	0.735	0.562	0.397	0.355	0.357	0.94	0.875	0.611	0.377	0.296	0.519	0.439	0.323	0.342	0.279
NCI-H650	0.295	0.282	0.275	0.185	0.18	0.366	0.299	0.171	0.164	0.154	0.685	0.579	0.239	0.126	0.198	0.767	0.558	0.266	0.301	0.208
201T	0.837	0.847	0.72	0.582	0.802	0.823	0.803	0.711	0.361	0.33	1.16	0.971	0.816	0.576	0.362	0.94	1.06	1.05	0.954	0.458
PC-14	0.173	0.187	0.154	0.057	0.0492	0.23	0.225	0.13	0.0581	0.0485	0.177	0.141	0.146	0.134	0.151	0.402	0.31	0.329	0.184	0.099
UMC-11	0.514	0.324	0.291	0.213	0.214	0.287	0.216	0.193	0.252	0.215	0.85	0.428	0.173	0.141	0.132	0.438	0.29	0.162	0.163	0.158
PC-3 [JPC-3]	0.829	0.822	0.661	0.62	0.51	1.09	1.02	0.802	0.632	0.483	0.705	0.661	0.455	0.376	0.359	0.453	0.441	0.441	0.374	0.329
LK-2	0.294	0.321	0.165	0.143	0.127	0.648	0.56	0.294	0.183	0.109	0.19	0.165	0.184	0.18	0.187	0.842	0.87	0.49	0.344	0.242
HCC-78	0.635	0.507	0.316	0.29	0.298	0.772	0.503	0.23	0.292	0.218	–	–	–	–	–	0.743	0.783	0.428	0.205	0.19
HCC-366	0.29	0.16	0.0371	0.0279	0.0431	0.32	0.173	0.0172	0.0252	0.0457	–	–	–	–	–	1.02	0.31	0.0171	0.0127	0.0262
LCLC-103H	0.72	0.714	0.355	0.315	0.431	0.598	0.709	0.356	0.357	0.353	0.949	0.883	0.278	0.311	0.269	–	–	–	–	–
NCI-H1563	–	–	–	–	–	–	–	–	–	–	0.509	0.54	0.483	0.295	0.413	1.02	0.654	0.85	0.892	0.598
EBC-1	–	–	–	–	–	0.609	0.478	0.195	0.216	0.132	–	–	–	–	–	0.224	0.21	0.188	0.178	0.152
Calu-6	–	–	–	–	–	0.545	0.385	0.237	0.207	0.13	–	–	–	–	–	0.925	0.541	0.382	0.204	0.216
